# Results as given in US12371454B2, “Cyclic peptide compound having Kras inhibitory action” (priority 2019, dated 2025).
# Positions of bridges follow the written chain, without caps; N, C: chain ends. Non-standard residues stand in square brackets, D forms with d. Residues, ends and D or L forms follow the SMILES beside them. *: point of attachment. hPhe(3-Cl-4-CF3) = N[C@@H](CCc1ccc(C(F)(F)F)c(Cl)c1)C(=O)O; NMePhe(2-CF3) = CN[C@@H](Cc1ccccc1C(F)(F)F)C(=O)O; NMePhe(3-Cl) = CN[C@@H](Cc1cccc(Cl)c1)C(=O)O; NMePhe(2-Me) = CN[C@@H](Cc1ccccc1C)C(=O)O; NMeAla(cPent) = CN[C@@H](CC1CCCC1)C(=O)O; NMeAla(cPr) = CN[C@@H](CC1CC1)C(=O)O; NMehPhe = CN[C@@H](CCc1ccccc1)C(=O)O; NMeCha = CN[C@@H](CC1CCCCC1)C(=O)O; NMeChg = CN[C@H](C(=O)O)C1CCCCC1; NMeF = CN[C@@H](Cc1ccccc1)C(=O)O; NMeD = CN[C@@H](CC(=O)O)C(=O)O; NMeL = CN[C@@H](CC(C)C)C(=O)O; NMeV = CN[C@H](C(=O)O)C(C)C; d(β3hA) = C[C@@H](N)CC(=O)O; NMeA = CN[C@@H](C)C(=O)O; Piperidide = C1CCN(*)CC1; Ac5c = NC1(C(=O)O)CCCC1; Aze = O=C(O)[C@@H]1CCN1; Sar = CNCC(=O)O
# Molecular target: T1, Kras and SOS1 (biotin-tagged human Kras loaded with GDP, His-tagged human SOS1) (Homo sapiens, UniProt P01116, G12D)
# T1 construct: made in house; host or cells: E. coli (stated for Kras only)
# T1 sequence (P01116 1-188 isoform P01116-2 G12D): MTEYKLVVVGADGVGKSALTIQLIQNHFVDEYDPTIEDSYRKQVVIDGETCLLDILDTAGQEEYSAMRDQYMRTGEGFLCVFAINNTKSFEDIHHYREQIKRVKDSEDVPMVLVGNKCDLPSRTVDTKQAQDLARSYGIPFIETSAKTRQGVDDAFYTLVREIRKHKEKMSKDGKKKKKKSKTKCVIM
# Assay: Protein-protein interaction inhibition between Kras and SOS1 (KrasGl2D-SOS PPI) using AlphaScreen
# Type: binding
# Conditions: AlphaScreen; biotin-tagged human Kras loaded with GDP, His-tagged human SOS1; read-out: KRAS G12D-SOS PPI IC50
# In short: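 Binding between SOS1 and Kras is detected as bead-proximity luminescence: illuminate Ni-conjugated donors (680 nm), collect 520-620 nm emission from streptavidin-conjugated acceptors; Kras carries biotin and GDP loaded after purification, SOS1 carries a His tag.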
row,Compound,IC50 [nM]
1,CC[C@H](C)[C@@H]1NC(=O)[C@H](CC(C)C)N(C)C(=O)C[C@@H](C)NC(=O)[C@H](C(C)C)N(C)C(=O)C2(CCCC2)NC(=O)[C@@H]2CCCN2C(=O)[C@H](CCc2ccc(C(F)(F)F)c(Cl)c2)NC(=O)CN(C)C(=O)[C@H](Cc2ccccc2)N(C)C(=O)CN(C)C(=O)CN(C)C1=O [Compound 1606] (cyclo([Ac5c][NMeV][d(β3hA)][NMeL]I[Sar][Sar][NMeF][Sar][hPhe(3-Cl-4-CF3)]P)),15
2,CC[C@H](C)[C@@H]1NC(=O)[C@H](CC(C)C)N(C)C(=O)C[C@@H](C)NC(=O)[C@H](C(C)C)N(C)C(=O)C2(CCCC2)NC(=O)[C@@H]2CCCN2C(=O)[C@H](CCc2ccc(C(F)(F)F)c(Cl)c2)NC(=O)CN(C)C(=O)[C@H](CC2CCCCC2)N(C)C(=O)[C@@H]2CCN2C(=O)[C@H](CC2CC2)N(C)C1=O [Compound 1612] (cyclo([Ac5c][NMeV][d(β3hA)][NMeL]I[NMeAla(cPr)][Aze][NMeCha][Sar][hPhe(3-Cl-4-CF3)]P)),390
3,CC[C@H](C)[C@@H]1NC(=O)[C@H](CC(C)C)N(C)C(=O)C[C@@H](C)NC(=O)[C@H](C(C)C)N(C)C(=O)C2(CCCC2)NC(=O)[C@@H]2CCCN2C(=O)[C@H](CCc2ccc(C(F)(F)F)c(Cl)c2)NC(=O)CN(C)C(=O)[C@H](Cc2ccccc2C(F)(F)F)N(C)C(=O)CN(C)C(=O)CN(C)C1=O [Compound 1613] (cyclo([Ac5c][NMeV][d(β3hA)][NMeL]I[Sar][Sar][NMePhe(2-CF3)][Sar][hPhe(3-Cl-4-CF3)]P)),110
4,CC[C@H](C)[C@@H]1NC(=O)[C@H](CC(C)C)N(C)C(=O)C[C@@H](C)NC(=O)[C@H](C(C)C)N(C)C(=O)C2(CCCC2)NC(=O)[C@@H]2CCCN2C(=O)[C@H](CCc2ccc(C(F)(F)F)c(Cl)c2)NC(=O)CN(C)C(=O)[C@H](Cc2ccccc2C)N(C)C(=O)CN(C)C(=O)CN(C)C1=O [Compound 1614] (cyclo([Ac5c][NMeV][d(β3hA)][NMeL]I[Sar][Sar][NMePhe(2-Me)][Sar][hPhe(3-Cl-4-CF3)]P)),51
5,CC[C@H](C)[C@@H]1NC(=O)[C@H](CC(C)C)N(C)C(=O)C[C@@H](C)NC(=O)[C@H](C(C)C)N(C)C(=O)C2(CCCC2)NC(=O)[C@@H]2CCCN2C(=O)[C@H](CCc2ccc(C(F)(F)F)c(Cl)c2)NC(=O)CN(C)C(=O)[C@H](CC2CCCCC2)N(C)C(=O)[C@@H]2CCN2C(=O)[C@H](CC2CCCC2)N(C)C1=O [Compound 1618] (cyclo([Ac5c][NMeV][d(β3hA)][NMeL]I[NMeAla(cPent)][Aze][NMeCha][Sar][hPhe(3-Cl-4-CF3)]P)),290
6,CC[C@H](C)[C@@H]1NC(=O)[C@H](C)N(C)C(=O)C[C@@H](C(=O)N2CCCCC2)N(C)C(=O)[C@H](C(C)C)N(C)C(=O)C2(CCCC2)NC(=O)[C@@H]2CCCN2C(=O)[C@H](CCc2ccc(C(F)(F)F)c(Cl)c2)NC(=O)CN(C)C(=O)[C@H](CC2CCCCC2)N(C)C(=O)[C@@H]2CCN2C(=O)[C@H](C2CCCCC2)N(C)C1=O [Compound 1622] ([NMeA]I[NMeChg][Aze][NMeCha][Sar][hPhe(3-Cl-4-CF3)]P[Ac5c][NMeV][NMeD]-Piperidide; lactam N-11),130
7,CC[C@H](C)[C@@H]1NC(=O)[C@H](CC(C)C)N(C)C(=O)C[C@@H](C)NC(=O)[C@H](C(C)C)N(C)C(=O)C2(CCCC2)NC(=O)[C@@H]2CCCN2C(=O)[C@H](CCc2ccc(C(F)(F)F)c(Cl)c2)NC(=O)CN(C)C(=O)[C@H](Cc2cccc(Cl)c2)N(C)C(=O)CN(C)C(=O)CN(C)C1=O [Compound 1623] (cyclo([Ac5c][NMeV][d(β3hA)][NMeL]I[Sar][Sar][NMePhe(3-Cl)][Sar][hPhe(3-Cl-4-CF3)]P)),54
8,CC[C@H](C)[C@@H]1NC(=O)[C@H](CC(C)C)N(C)C(=O)C[C@@H](C(=O)N2CCCCC2)N(C)C(=O)[C@H](C(C)C)N(C)C(=O)C2(CCCC2)NC(=O)[C@@H]2CCCN2C(=O)[C@H](CCc2ccc(C(F)(F)F)c(Cl)c2)NC(=O)CN(C)C(=O)[C@H](CC2CCCCC2)N(C)C(=O)[C@@H]2CCN2C(=O)[C@H](CCc2ccccc2)N(C)C1=O [Compound 1624] ([NMeL]I[NMehPhe][Aze][NMeCha][Sar][hPhe(3-Cl-4-CF3)]P[Ac5c][NMeV][NMeD]-Piperidide; lactam N-11),92
9,CC[C@H](C)[C@@H]1NC(=O)[C@H](CC(C)C)N(C)C(=O)C[C@@H](C)NC(=O)[C@H](C(C)C)N(C)C(=O)C2(CCCC2)NC(=O)[C@@H]2CCCN2C(=O)[C@H](CCc2ccc(C(F)(F)F)c(Cl)c2)NC(=O)CN(C)C(=O)[C@H](CCc2ccccc2)N(C)C(=O)CN(C)C(=O)CN(C)C1=O [Compound 1627] (cyclo([Ac5c][NMeV][d(β3hA)][NMeL]I[Sar][Sar][NMehPhe][Sar][hPhe(3-Cl-4-CF3)]P)),15
